Drawing on ChEMBL document CHEMBL5226345, “Lactate dehydrogenase and malate dehydrogenase: Potential antiparasitic targets for drug development studies” (Bioorg Med Chem, 2021), this text covers IC50 for twelve molecules.

The nature of assay [1]: Inhibition of recombinant his tagged Cryptosporidium parvum LDH expressed in Escherichia coli by spectrophotometric based assay.
Assay [2] can be described thus: Inhibition of Plasmodium falciparum MDH.
Assay [3] in a line: Inhibition of Plasmodium falciparum LDH by ELISA method.
Assay [4] is described as follows: Inhibition of Schistosoma LDH.
Assay [5] is described as follows: Inhibition of Plasmodium falciparum LDH.
Assay [6] in a line: Inhibition of Toxoplasma gondii LDH2.
A short description of assay [7]: Inhibition of Toxoplasma gondii LDH1.
A short description of assay [8]: Inhibition of Trichomonas vaginalis LDH.

For the molecule `O=C(CSc1ccccc1)Nc1cccc2ccccc12`, the IC50 in assay [1] turned out to be 79.6 µM.

For `NC(=O)C(=O)O` [OXAMATE], in assay [2], the IC50 stood at 2.66 µM.

As for `CC(C)c1c(C(=O)Nc2ccccc2)c(-c2ccccc2)c(-c2ccc(F)cc2)n1CC[C@@H](O)C[C@@H](O)CC(=O)O` [ATORVASTATIN], the 50% inhibitory concentration (IC50) in assay [3] amounted to 13.1 µM.

In the case of `c1ccc2[nH]cnc2c1` [BENZIMIDAZOLE], the IC50 entry in assay [4] is on record as “Not Active”.

For `COc1ccc(CNC(=O)C2=CC(=O)c3c(O)cc(OCCc4ccc(NC(=O)C(=O)O)c(C)c4)cc3C2)cc1`, the figures for the IC50 in assay [5] and in assay [2] were 1.75 µM and 2.66 µM, respectively.

With `Cc1cc2c(C(C)C)c(O)c(O)c(C=O)c2c(O)c1-c1c(C)cc2c(C(C)C)c(O)c(O)c(C=O)c2c1O` [GOSSYPOL], the values for the IC50 in assay [6], in assay [7] and in assay [1] were 0.1 µM, 0.7 µM and 11.8 µM, respectively.

Consider `CCCc1c(O)c(O)c(C(=O)O)c2cc(Cc3ccccc3)c(C)cc12`, for which the IC50 in assay [6] turned out to be 0.9 µM; in assay [7], 3.5 µM; in assay [1], 39.5 µM; in assay [5] it was 0.14 µM.

In the case of `O=C1c2ccccc2C(=O)c2c(O)c(O)cc(O)c21` [PURPURIN], the IC50 in assay [1] was 46.3 µM.

With `O=C(C1CCCCC1)N1CC(=O)N2CCc3ccccc3C2C1` (stereo not drawn) [PRAZIQUANTEL], the IC50 entry in assay [4] is on record as “Not Active”.

On to `CC[C@@H]([C@H](C)O)n1ncn(-c2ccc(N3CCN(c4ccc(OC[C@@H]5CO[C@@](Cn6cncn6)(c6ccc(F)cc6F)C5)cc4)CC3)cc2)c1=O` [POSACONAZOLE], for which, in assay [3], the IC50 came to 2.6 µM.

Regarding `CCC(C)n1ncn(-c2ccc(N3CCN(c4ccc(OCC5COC(Cn6cncn6)(c6ccc(Cl)cc6Cl)O5)cc4)CC3)cc2)c1=O` (stereo not drawn) [ITRACONAZOLE], inhibition in assay [3] was half-maximal at 9.3 µM (IC50).

`O=C(Nc1ccccc1)c1nnn(-c2ccnc3cc(Cl)ccc23)c1-c1ccccc1` yielded an IC50 in assay [8] of 100 µM.
